Results reported in ChEMBL document CHEMBL4346666, “Synthesis, mitochondrial localization of fluorescent derivatives of cinnamamide as anticancer agents” (Eur J Med Chem, 2019).
pIC50: −log10 of the molar value. The source made the active and inactive calls. No cut-off for these calls is given here.

Experiments:
HL-60 [1] = test: Induction of cell cycle arrest in human HL60 cells assessed as accumulation at G0/G1 phase at 10 uM after 48 hrs by propidium iodide staining based flow cytometry (reference value: 83.52%); type: functional
HL-60 [2] = test: Cytotoxicity against human HL60 cells assessed as reduction in cell viability measured after 48 hrs by MTT assay; type: functional, cell-based; settings: HL-60, 48 h
HL-60 [3] = test: Induction of cell cycle arrest in human HL60 cells assessed as accumulation at G2/M phase at 20 uM after 48 hrs by propidium iodide staining based flow cytometry (reference value: 1.60%); type: functional
[4] = Drug uptake in human HL60 cells at 20 uM measured after 1.5 hrs by spectrofluorimetric analysis relative to PBMC cells; type: ADME, cell-based; settings: hl-60, 1.5 h
HL-60 [5] = test: Induction of apoptosis in human HL60 cells assessed as late apoptotic cells or necrotic cells at 20 uM after 48 hrs by Annexin-V-FITC/propidium iodide staining based flow cytometry (reference value: 0.39%); type: functional
HL-60 [6] = test: Cytotoxicity against human HL60 cells assessed as reduction in cell viability measured after 48 hrs in presence of ROS scavenger N-acetyl-L-cysteine and VE by MTT assay; type: functional, cell-based
MCF7 = test: Cytotoxicity against human MCF7 cells assessed as cell viability at 20 uM measured after 48 hrs by MTT assay relative to control; type: functional; settings: MCF7, 48 h, read-out: Activity
HL-60 [7] = test: Induction of mitochondrial dysfunction in human HL60 cells assessed as decrease in mitochondrial membrane potential at 20 uM measured after 48 hrs by TMRE probe-based flow cytometry relative to control; type: functional
[8] = Drug uptake in human HL60 cells at 20 uM measured after 0.5 hrs by spectrofluorimetric analysis relative to PBMC cells; type: ADME, cell-based; settings: hl-60, 0.5 h
HL-60 [9] = test: Induction of apoptosis in human HL60 cells assessed as late apoptotic cells or necrotic cells at 10 uM after 48 hrs by Annexin-V-FITC/propidium iodide staining based flow cytometry (reference value: 0.39%); type: functional
[10] = Drug localization in mitochondria of human HepG2 cells at 1 uM measured after 30 mins by […] dye-based confocal microscopy; type: ADME; settings: hepg2, 0.5 h
HL-60 [11] = test: Induction of cell cycle arrest in human HL60 cells assessed as accumulation at sub G0/G1 phase at 20 uM after 48 hrs by propidium iodide staining based flow cytometry (reference value: 0%); type: functional
HL-60 [12] = test: Cytotoxicity against human HL60 cells assessed as cell viability at 20 uM measured after 48 hrs by MTT assay relative to control; type: functional; settings: HL-60, 48 h, read-out: Activity
HL-60 [13] = test: Induction of apoptosis in human HL60 cells assessed as late apoptotic cells or necrotic cells at 15 uM after 48 hrs by Annexin-V-FITC/propidium iodide staining based flow cytometry (reference value: 0.39%); type: functional
HL-60 [14] = test: Induction of ROS generation in human HL60 cells after 6 hrs by DCFH-DA probe based flow cytometry analysis; type: functional, cell-based
HepG2 = test: Cytotoxicity against human HepG2 cells assessed as cell viability at 20 uM measured after 48 hrs by MTT assay relative to control; type: functional; settings: HepG2, 48 h, read-out: Activity
HL-60 [15] = test: Induction of apoptosis in human HL60 cells assessed as early apoptotic cells at 15 uM after 48 hrs by Annexin-V-FITC/propidium iodide staining based flow cytometry (reference value: 0.71%); type: functional
PBMC = test: Cytotoxicity against human PBMC assessed as reduction in cell viability measured after 48 hrs by MTT assay; type: cell-based
HL-60 [16] = test: Induction of mitochondrial dysfunction in human HL60 cells assessed as decrease in mitochondrial membrane potential at 10 uM measured after 48 hrs by TMRE probe-based flow cytometry relative to control; type: functional
HeLa = test: Cytotoxicity against human HeLa cells assessed as cell viability at 20 uM measured after 48 hrs by MTT assay relative to control; type: functional; settings: read-out: Activity
HL-60 [17] = test: Induction of cell cycle arrest in human HL60 cells assessed as accumulation at sub G0/G1 phase at 10 uM after 48 hrs by propidium iodide staining based flow cytometry (reference value: 0%); type: functional
[18] = Binding affinity to cysteamine residue assessed as hypochromic effect at 20 uM incubated for up to 1 hr by UV-Vis absorption spectrophotometric method
[19] = Drug localization in mitochondria of human HL60 cells at 1 uM measured after 30 mins by […] dye-based confocal microscopy; type: ADME; settings: hl-60, 0.5 h
HL-60 [20] = test: Cell cycle arrest in human HL60 cells assessed as decrease in accumulation at S phase after 48 hrs by propidium iodide staining based flow cytometry; type: functional
HL-60 [21] = test: Cell cycle arrest in human HL60 cells assessed as decrease in accumulation at G2/M phase after 48 hrs by propidium iodide staining based flow cytometry; type: functional
HL-60 [22] = test: Induction of cell cycle arrest in human HL60 cells assessed as accumulation at S phase at 15 uM after 48 hrs by propidium iodide staining based flow cytometry (reference value: 14.88%); type: functional
[23] = Drug uptake in human HL60 cells by flow cytometry; type: ADME, cell-based; settings: hl-60
HL-60 [24] = test: Induction of cell cycle arrest in human HL60 cells assessed as accumulation at G2/M phase at 10 uM after 48 hrs by propidium iodide staining based flow cytometry (reference value: 1.60%); type: functional
HL-60 [25] = test: Induction of mitochondrial dysfunction in human HL60 cells assessed as decrease in mitochondrial membrane potential at 15 uM measured after 48 hrs by TMRE probe-based flow cytometry relative to control; type: functional
HL-60 [26] = test: Induction of apoptosis in human HL60 cells assessed as early apoptotic cells at 10 uM after 48 hrs by Annexin-V-FITC/propidium iodide staining based flow cytometry (reference value: 0.71%); type: functional
HL-60 [27] = test: Induction of apoptosis in human HL60 cells assessed as early apoptotic cells at 20 uM after 48 hrs by Annexin-V-FITC/propidium iodide staining based flow cytometry (reference value: 0.71%); type: functional
HL-60 [28] = test: Induction of cell cycle arrest in human HL60 cells assessed as accumulation at sub G0/G1 phase at 15 uM after 48 hrs by propidium iodide staining based flow cytometry (reference value: 0%)l; type: functional
[29] = Binding affinity to cysteamine residue by ESI-MS analysis
HL-60 [30] = test: Induction of cell cycle arrest in human HL60 cells assessed as accumulation at G2/M phase at 15 uM after 48 hrs by propidium iodide staining based flow cytometry (reference value: 1.60%); type: functional
HL-60 [31] = test: Induction of apoptosis in human HL60 cells assessed as increase in late apoptotic or necrotic cells after 48 hrs by Annexin-V-FITC/propidium iodide staining based flow cytometry relative to control; type: functional, cell-based
HL-60 [32] = test: Induction of cell cycle arrest in human HL60 cells assessed as accumulation at S-phase at 10 uM after 48 hrs by propidium iodide staining based flow cytometry (reference value: 14.88%); type: functional
[33] = Binding affinity to cysteamine residue at 1:1 to 5:1 stoichiometric ratio of cysteamine to compound incubated for up to 1 hr by UV-Vis absorption spectrophotometric method
HL-60 [34] = test: Induction of cell cycle arrest in human HL60 cells assessed as accumulation at S-phase at 20 uM after 48 hrs by propidium iodide staining-based flow cytometry (reference value: 14.88%); type: functional
HL-60 [35] = test: Induction of cell cycle arrest in human HL60 cells assessed as accumulation at G0/G1 phase at 20 uM after 48 hrs by propidium iodide staining based flow cytometry (reference value: 83.52%); type: functional
[36] = Drug uptake in human HL60 cells at 20 uM measured after 3 hrs by spectrofluorimetric analysis relative to PBMC cells; type: ADME, cell-based; settings: hl-60, 3 h
HL-60 [37] = test: Induction of cell cycle arrest in human HL60 cells assessed as accumulation at G0/G1 phase at 15 uM after 48 hrs by propidium iodide staining based flow cytometry (reference value: 83.52%); type: functional

In the case of `CCN(CC)c1ccc2cc(C(=O)NCCNC(=O)/C(=C/c3cc(OC)c(OC)c(OC)c3)c3ccc(OC)c(OC)c3)c(=O)oc2c1`, the Activity (HL-60 [1]) was 65.71%, the pIC50 (HL-60 [2]) was 5.04 and the Activity (HL-60 [3]) was 41.72%. For the same compound, the “fold change (FC)” value [4] was 4.5, the Activity (HL-60 [5]) was 70.2% and the Activity (HL-60 [6]) was “inactive”. The viability at 20 µM (MCF7) was 66.5%, the “fold change (FC)” value (HL-60 [7]) was 0.29 and the “fold change (FC)” value [8] was 4.2. The Activity (HL-60 [9]) was 16.3%, the Drug uptake [10] was “Active” and the Activity (HL-60 [11]) was 21.44%. The viability at 20 µM (HL-60 [12]) was 25.8%, the Activity (HL-60 [13]) was 38% and the Activity (HL-60 [14]) was “Dose-dependent effect”. For the same compound, the viability at 20 µM (HepG2) was 56.4%, the Activity (HL-60 [15]) was 6.06% and the pIC50 (PBMC) was < 4.30. For the same compound, the “fold change (FC)” value (HL-60 [16]) was 0.76, the viability at 20 µM (HeLa) was 53.8% and the Activity (HL-60 [17]) was 12.84%. The Activity [18] was “Active”, the Drug uptake [19] was “Active” and the Activity (HL-60 [20]) was “Dose-dependent effect”. For the same compound, the Activity (HL-60 [21]) was “Dose-dependent effect”, the Activity (HL-60 [22]) was 35.43% and the Drug uptake [23] was “Tde and Dose-dependent effect”. For the same compound, the Activity (HL-60 [24]) was 14.35%, the “fold change (FC)” value (HL-60 [25]) was 0.46 and the Activity (HL-60 [26]) was 2.15%. For the same compound, the Activity (HL-60 [27]) was 3.75%, the Activity (HL-60 [28]) was 24.1% and the Activity [29] was “Active”. For the same compound, the Activity (HL-60 [30]) was 40.42%, the Activity (HL-60 [31]) was “Dose-dependent effect” and the Activity (HL-60 [32]) was 19.94%. The Activity [33] was “Active”, the Activity (HL-60 [34]) was 55.59% and the Activity (HL-60 [35]) was 2.69%. For the same compound, the “fold change (FC)” value [36] was 8.9 and the Activity (HL-60 [37]) was 24.15%.
